“Also recorded” adds a separate entry of the source.
Legend:
CR-EAE in SJL/J mice = test: Chronic-relapsing EAE (CR-EAE) by transfer of PLP-sensitized lymphocytes, clinical signs; format: in vivo, mouse
[1] = system: TAA-induced liver cirrhosis in Wistar rats; test: Hepatic hydroxyproline levels in TAA-induced cirrhosis; format: in vivo, rat
Procedure: Liver cirrhosis was induced in rats by intraperitoneal (i.p.) administration of TAA 200 mg/kg twice weekly for 12 weeks, as previously described (1, 2). […] The FTS was dissolved in PBS and administered i.p. 3 times a week to rats according to their assigned groups. Four groups containing 6 rats each were treated as follows. One group received TAA 200 mg/kg i.p. twice a week and i.p. injections of PBS 3 days a week for 12 weeks (cirrhotic controls for the FTS-treated groups). A second group received TAA for 12 weeks and FTS 5 mg/kg, 3 times a week. […] The two control groups consisted of one that received PBS injections without TAA for 12 weeks (normal controls) and a group of 5 rats that received only FTS 5 mg/kg i.p. for 12 weeks to monitor the appearance of adverse effects. Quantitative determination of hepatic hydroxyproline levels was performed as previously described (2). The hydroxyproline levels were analyzed twice and separately for each liver.

MRL/lpr mice [2] = test: Disease activity in MRL/lpr mice (proteinuria, lymphadenopathy, grip strength; Example 4); format: in vivo, mouse
Procedure: One of the important measures of disease activity in MRL/lpr mice is proteinuria. Levels of proteinura were measured weekly by means of dip-sticks in MRL/lpr and Mrl/++ mice treated daily with FTS or with vehicle alone. Significant proteinuria developed in the MRL/lpr treated with vehicle compared to the MRL/++ groups. […] Other systemic measures of disease activity including lymphadenopathy and lymphocyte proliferation were normalized in FTS treated MRL/lpr mice (not shown).

MRL/lpr mice [3] = test: Lymphadenopathy and splenomegaly in MRL mice; format: in vivo, mouse
Procedure: The development of generalized lymphadenopathy in the MRL/lpr mice (saline and FTS-treated) was evaluated by palpation of axillary and inguinal lymph nodes. The maximal lymph nodes score in each mouse was 4, when both axillary and inguinal lymph nodes (in both sides) were palpable. At 18 weeks of age the mice were sacrificed and the spleens and lymph nodes (axillary, inguinal and cervical) were removed and weighed.

Ras [4] = test: Ras in membranes (P100) and cytosol (S100) of cultured spleen lymphocytes (Western immunoblot); format: cell-based, mouse; details: for amount of insoluble (P100) Ras: 24 h, relative to FTS 0 μM = 100
Procedure: Spleen lymphocytes, obtained from six mice as described above, were pooled and plated in 10 cm dishes containing RPMI/5% FCS at a density of 2.3×10^7 cells per plate. […] Twenty-four hours later the cells were collected (pools of 2 plates for each treatment) and washed in PBS. The cells were then homogenized in homogenization buffer containing protease inhibitors. Ras was determined in total cell membranes (P100) and cytosol (S100) obtained by centrifugation ([…], 30 min, 4° C.). Briefly, 25 μg of total cellular proteins were separated by 12.5% sodium dodecylsulfate polyacrylamide gel electrophoresis (SDS-PAGE) and blotted onto nitrocellulose membranes. Immunoblotting with pan-Ras, enhanced chemiluminescense assays (ECL) and densitometric analysis were then performed as detailed previously (14).

MRL/lpr mice [5] = test: Grip strength test (hang time) in MRL mice; format: in vivo, mouse
Procedure: The four groups of mice were examined weekly using the grip strength test. Muscle strength was measured by the number of seconds the mouse was able to hang suspended on a stationary bar. A neurologically normal mouse is able to remain suspended (hang time) for 30 seconds or longer (17).

Ras [6] = test: Ras expression in rat liver membranes (Western blot); format: in vivo
Procedure: The levels of Ras proteins in the rat livers were determined by immunoblotting assays using anti Ras antibodies (PanRasAb03, Santa Cruz) as detailed previously (4, 5). Briefly, the livers were homogenized (10% w/v) in 0.32M sucrose, 50 mM Tris HCl, pH 7.4 buffer containing 3mM EDTA, 1 mM EGTA, 5 μg/ml pepstatine, and 5 units/ml opsotonin. Nuclei and cell debris were removed by a 10-minute 1000×g spin. The plasma membrane-enriched fraction was obtained by a 20,000×g 30 minute spin. The resulting pellets were resuspended in homogenization buffer and samples containing 20 μg proteins were used for 12.5% SDS-PAGE (mini gels). The gels were subjected to immunoblotting assays as described previously (4). Each western blot was analyzed 3 times and the data in FIG. 17 represent the means±SD OD of these 3 blots. Ras was also determined by immunohistochemistry.

## CC(C)=CCC/C(C)=C/CC/C(C)=C/CSc1ccccc1C(=O)O [FTS, farnesyl thiosalicylic acid]
CR-EAE in SJL/J mice; FTS 5 mg/kg/day from day of cell transfer
  clinical course of CR-EAE (FIG. 2): milder form of CR-EAE
CR-EAE in SJL/J mice; FTS 5 mg/kg/day, vehicle group 30%
  mortality in CR-EAE: none of them died
CR-EAE in SJL/J mice; follow-up 2-3 months, n=7, control 9
  total relapses of the paralytic disease: 5
[1]; TAA plus FTS, TAA alone 7.7±0.9
  hepatic hydroxyproline levels: 3.8±0.5 mg/g protein
[1]; control group treated with FTS only
  hepatic hydroxyproline levels: 1.6±0.1 mg/g protein
MRL/lpr mice [2]; MRL/lpr mice
  lymphadenopathy and lymphocyte proliferation: normalized
  weakness as measured by grip strength on a horizontal bar: normalized by FTS treatment
MRL/lpr mice [2]; MRL/lpr mice treated daily
  proteinuria (dip-sticks, FIG. 15): did not develop significant proteinuria
MRL/lpr mice [3]; MRL/++ mice, untreated 0.13±0.01
  spleen weight: 0.19 ± 0.03 g
MRL/lpr mice [3]; MRL/lpr mice
  lymphadenopathy (palpation score): significantly delayed; also recorded: significantly less
  weight of excised lymph nodes: significant effect of FTS; also recorded: significantly less
MRL/lpr mice [3]; MRL/lpr mice, 17 weeks, mean±SE, untreated 0.54±0.04
  spleen weight: 0.41 ± 0.04 g
Ras [4]; FTS 12.5 μM
  amount of insoluble (P100) Ras: 84±9.8%
Ras [4]; FTS 50μM as printed
  amount of insoluble (P100) Ras: 52±16%
Ras [4]; FTS 12.5 and 25 μM
  levels of soluble (S100) Ras: no concomitant observable change
MRL/lpr mice [5]; MRL/++ mice
  grip strength (hang time on a horizontal bar): trend for FTS to impair performance
MRL/lpr mice [5]; MRL/lpr mice, 12-17 weeks of age
  grip strength (hang time on a horizontal bar): significantly impaired in this test from week 14 compared to the FTS-treated group; also recorded: normalized
Ras [6]; FTS treatment
  decrease in Ras expression in the livers of TAA-treated rats: 70%
Ras [6]; TAA+FTS treated group, TAA alone 17.6±2.0-fold
  Ras levels in liver membranes, fold higher than control group: 4.9±1.2 fold

Reference: patent publication US6462086B1, “Non-malignant disease treatment with Ras antagonists” (Ramot University Authority for Applied Research and …, priority 1999, dated 2002)
